Here are results for two substances from patent US20230190778A1, “COMPOSITION COMPRISING GLUCOSE OLIGOSACCHARIDE AND PROCESS FOR MAKING THE SAME AND USE THEREOF” (CARGILL, INCORPORATED, priority 2020, published 2023).

In data set [1] the test system is chicken macrophage-like cell line HD11. The data set is described as follows: Nitric oxide (NO)-production assay (Griess). Format: cell-based. The note with it: HD11 cells. On the procedure: A nitric oxide production assay using chicken macrophage-like cell line HD11, as also described by Biggelaar et al., Vaccines 2020, 8(2), 332, was carried out to compare immune responses in terms of NO production of the glucose-oligosaccharide according to Example 1 and a prior art glucose-oligosaccharide fibre according to Example 2.
To obtain a standard NO calibration curve, the Griess assay was used as described by Biggelaar et al.
On day 1 HD11 cell were seeded, day 2 compounds were added at different concentrations i.e. at 10 ppm, 50 ppm and 100 ppm. […] Compounds were tested in triplicate per NO assay i.e. in total 3 series of NO assays were performed per compound per concentration.
(NB: Negative output implies zero NO production. Negative values arise due to the calculation based on the standard NO calibration curve. Negative output can be seen as 0 NO production.)
A general note: The Griess reaction detects nitrite, a stable product of nitric oxide.

Data set [2] deals with developing embryos (unhatched chicks). The experiment in a line: In ovo trial (hatchability / safety). The data set is classed as in vivo, chicken. Particulars: 1 mL injected in ovo at 17 days of incubation; at up to just 0.006 mg; FIG. 4. On the procedure:
The trials were thus carried out to indicate safety of the compound according to the invention in animals In this case, a comparison was made with Example 3, a commercially available conjugated linoleic acid (CLA). It is known that CLA may modulate the immune system.
480 eggs we incubated under standard conditions. They were divided unto 8 groups of 10 eggs replicated 6 times. At 17 days of incubation eggs were injected with 1 mL of the respective solution of Example 1 and Example 3 at increasing concentrations. The intention was to deliver into the amniotic fluid to be orally consumed and digested by the developing embryos according to the method described by (Uni et al., 2005, Poult Sci 84:764-770). At day of hatch, hatched chicks as well as remaining non-hatched eggs were counted and % hatchability was calculated to indicate safety of injected materials by not causing mortality.

For the substance Lipopolysaccharide [LPS], the “NO production (positive control)” value in data set [1] was “high NO production”.

In the case of conjugated linoleic acid [Example 3], the hatchability result in data set [2] is on record as “Not all of the chicks hatched”.
